Assay results as given in ChEMBL document CHEMBL1201862, “PubChem BioAssay data set” (2004).
Calls of active or inactive are those of the source.

Tests used:
Prothrombin = Prothrombin (Homo sapiens, UniProt P00734); experiment: Thrombin 1536 HTS Dose Response Confirmation. [Related pubchem assays: 1046 (Thrombin 1536 HTS; hits were confirmed in this assay)]; type: functional
[1] = inhibitors of Vif binding to APOBEC3G peptide, primary screen, biochemical, TR-FRET, GST-Vif 1-94, biotin-A3G peptide, dose response retest (AID 1117319); type: functional;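 also: TR-FRET signal of purified GST-Vif binding a biotinylated A3G peptide; inhibitors lower the FRET signal by blocking Vif and A3G binding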
Nonstructural protein 1 = Nonstructural protein 1 (Influenza A virus, UniProt Q194T2); type: functional, Influenza A virus (A/California/07/2009(H1N1))
Vero [2] = experiment: host cell cytotoxicity of antiviral hits, dose response, cytotoxicity control for West Nile virus antiviral project, secondary assay (AID 1650); type: functional; details: Chlorocebus sabaeus
[3] = target: T1, Polyadenylate-binding protein 1 (Homo sapiens, UniProt P11940); experiment: PABP1 MLLE–PAM2 binding inhibitor potency, dose response, biochemical, fluorescence polarization, FITC-PAM2 peptide (AID 602259); type: functional; details: read-out: IC50_Mean
[4] = target: T1, Polyadenylate-binding protein 1; experiment: PABP1 MLLE–PAM2 interaction inhibitors, dose response, miRNA deadenylation inhibitor project, biochemical, fluorescence polarization, Cy5-PAM2 peptide, secondary (AID 602260); type: functional; details: read-out: IC50_Mean
Vero [5] = experiment: cells; type: functional; details: Chlorocebus sabaeus
[6] = A cytotoxicity screen of small molecule inhibitors of the PhoP region in Salmonella typhi identified in the primary screen. [Related pubchem assays: 1850, 1864, 1985 ]; type: functional
[7] = target: T2, Oxysterols receptor LXR-beta (Homo sapiens, UniProt P55055); type: functional, cell-based;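 also: Cell-based luminescence dose-response assay of agonist activity at LXR, run as a confirmatory counterscreen to a daf-12 agonist screen; HEK293 cells with Gal4-LXR fusion and GAL4-driven luciferase reporter; agonist potency from rising luciferase signal of a Gal4-LXR reporter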
T2 sequence (P55055 whole entry): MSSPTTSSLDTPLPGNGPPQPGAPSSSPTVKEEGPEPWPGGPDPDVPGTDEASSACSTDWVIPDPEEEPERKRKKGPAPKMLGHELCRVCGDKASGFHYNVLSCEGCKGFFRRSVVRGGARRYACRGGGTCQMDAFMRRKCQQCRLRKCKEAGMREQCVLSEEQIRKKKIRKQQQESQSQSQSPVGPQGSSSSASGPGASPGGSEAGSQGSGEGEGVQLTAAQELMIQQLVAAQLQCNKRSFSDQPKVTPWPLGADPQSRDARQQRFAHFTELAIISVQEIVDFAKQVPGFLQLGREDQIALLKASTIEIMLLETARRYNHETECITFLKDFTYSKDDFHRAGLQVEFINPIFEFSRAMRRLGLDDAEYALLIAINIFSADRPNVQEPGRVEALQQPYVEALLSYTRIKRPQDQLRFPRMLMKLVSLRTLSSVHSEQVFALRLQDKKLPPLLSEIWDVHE

Kallikrein-7 = Kallikrein-7 (Homo sapiens, UniProt P49862); experiment: Fluorescence Intensity-based biochemical primary high throughput dose response assay to identify activators of kallikrein-7 (K7) zymogen.
[8] = M. tuberculosis growth inhibition, HTS (AID 449762); type: functional
[9] = microbe, parasite or virus in culture; type: functional; details: Mycobacterium tuberculosis
Cytochrome P450 3A4 = Cytochrome P450 3A4 (Homo sapiens, UniProt P08684); details: Potency;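 also: confirmatory qHTS run detecting inhibitors and substrates of CYP3A4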
Orexin receptor type 2 [10] = target: T3, Orexin receptor type 2 (Homo sapiens, UniProt O43614); experiment: Counterscreen assay for antagonists of the orexin 1 receptor (OX1R; HCRTR1): Fluorescence-based cell-based dose response assay for antagonists of the orexin 2 receptor (OX2R; HCRTR2), run by assay provider.; type: functional
T3 sequence (O43614 whole entry): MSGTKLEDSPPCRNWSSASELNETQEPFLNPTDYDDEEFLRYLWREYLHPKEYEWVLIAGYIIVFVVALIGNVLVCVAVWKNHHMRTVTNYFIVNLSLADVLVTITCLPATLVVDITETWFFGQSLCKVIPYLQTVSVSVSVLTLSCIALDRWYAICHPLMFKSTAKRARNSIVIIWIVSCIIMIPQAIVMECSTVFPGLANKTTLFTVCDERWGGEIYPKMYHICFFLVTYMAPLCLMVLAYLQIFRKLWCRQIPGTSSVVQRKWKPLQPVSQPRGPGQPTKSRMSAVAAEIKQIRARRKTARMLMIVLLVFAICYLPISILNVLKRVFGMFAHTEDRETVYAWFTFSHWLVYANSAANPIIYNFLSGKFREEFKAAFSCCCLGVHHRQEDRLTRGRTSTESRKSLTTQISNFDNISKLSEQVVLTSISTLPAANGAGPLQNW

[11] = target: T4, Orexin/Hypocretin receptor type 1 (Homo sapiens, UniProt O43613); experiment: Homogeneous Time Resolved Fluorescence (HTRF)-based cell-based high throughput dose response assay for antagonists of the orexin 1 receptor (OX1R; HCRTR1). [Related pubchem assays (depositor defined):AID434989, AID435008, AID463079, AID485270, AID492963, AID492964, AID492965, AID493232, AID504717, AID504718]; type: functional
T4 sequence (O43613 whole entry): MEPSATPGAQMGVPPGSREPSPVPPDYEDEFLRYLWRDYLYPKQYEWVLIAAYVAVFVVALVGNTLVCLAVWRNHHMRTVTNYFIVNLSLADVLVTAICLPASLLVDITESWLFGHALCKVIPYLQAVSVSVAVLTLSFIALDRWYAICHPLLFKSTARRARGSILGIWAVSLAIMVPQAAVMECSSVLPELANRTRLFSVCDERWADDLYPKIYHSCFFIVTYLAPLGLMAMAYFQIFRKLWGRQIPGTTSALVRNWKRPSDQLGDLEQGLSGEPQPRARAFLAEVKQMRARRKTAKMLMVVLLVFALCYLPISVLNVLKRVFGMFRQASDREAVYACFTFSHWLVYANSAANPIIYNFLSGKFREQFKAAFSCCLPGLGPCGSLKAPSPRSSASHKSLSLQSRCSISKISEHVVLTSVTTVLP

Orexin receptor type 2 [12] = target: T3, Orexin receptor type 2; experiment: Counterscreen assay for antagonists of the orexin 1 receptor (OX1R; HCRTR1): Homogeneous Time Resolved Fluorescence (HTRF)-based cell-based dose response assay for antagonists of the orexin 2 receptor (OX2R; HCRTR2), run by assay provider.; type: functional
[13] = Counterscreen for antagonists of the orexin 1 receptor (OX1R; HCRTR1): Fluorescence-based cell-based high throughput dose response assay to identify antagonists of the parental CHO cell line. [Related pubchem assays (depositor defined):AID434989, AID435008, AID463079, AID485270, AID492963, AID492964, AID492965, AID493232, AID504699, AID504701]; type: functional
[14] = target: T4, Orexin/Hypocretin receptor type 1; experiment: Fluorescence-based cell-based high throughput dose response assay for antagonists of the orexin 1 receptor (OX1R; HCRTR1). [Related pubchem assays (depositor defined):AID434989, AID435008, AID463079, AID485270, AID492963, AID492964, AID492965, AID493232, AID504717, AID504718]; type: functional
CHO-K1 = experiment: Counterscreen for antagonists of the orexin 1 receptor (OX1R; HCRTR1): Homogeneous time resolved fluorescence (HTRF)-based cell-based dose response assay to identify antagonists of the parental CHO-K1 cell line. [Related pubchem assays (depositor defined):AID434989, AID435008, AID463079, AID485270, AID492963, AID492964, AID492965, AID493232, AID504699, AID504701]; type: functional; details: Cricetulus griseus;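 also: potency for inhibition of ATP-stimulated IP1 production as antagonists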
[15] = A2780 ovarian cancer cell cytotoxicity, dose response, cytotoxicity control, plate reader, dry powder samples (AID 743046); type: functional, cell-based
[16] = cytotoxicity in COV362 ovarian cancer cells, dose response, cytotoxicity control for PAX8 inhibitor project, cell-based, plate reader, dry powder, SA12 (AID 743144); type: functional
[17] = IGROV1 ovarian cancer cell cytotoxicity, dose response, PAX8 inhibitor project, plate reader, dry powder samples (AID 743043); type: functional, cell-based; details: IGROV-1
[18] = cytotoxicity in COV434 cells, dose response, cytotoxicity control for PAX8 inhibitor project, cell-based, plate reader, dry powder, SA7 (AID 743145); type: functional
[19] = PAX2 cell-based inhibition, dose response, selectivity assay for PAX8 inhibitor project, plate reader, dry powder samples (AID 743048); type: functional;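 also: HEK293 cells carrying a WT1 promoter luciferase reporter driven by expressed Pax2; potency is for inhibition of Pax2 driven reporter signal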
Caspase-6 = Caspase-6 (Homo sapiens, UniProt P55212); experiment: human caspase-6 inhibitors, dose response, biochemical, VEID-R110 fluorescence, cherry-pick (AID 720632)
[20] = growth suppression of PTEN-null colon cells, dose response, cell-based, HCT116 PTEN knockout (AID 1047); type: functional;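 also: HCT116 colon tumor cells with PTEN knocked out; cells exposed to compound for 60 hours before readout; potency for loss of cell viability measured by luminescence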
[21] = growth suppression of beta-catenin-knockout colon cells, dose response, cell-based, HCT116, human colon tumor (AID 1045); type: functional;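 also: HCT116 colon tumor cells with beta catenin knocked out; cells exposed to compound for 60 hours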
Ephrin type-A receptor 4 = Ephrin type-A receptor 4 (Mus musculus, UniProt Q03137); experiment: inhibitors of EphA4 binding to KYL peptide, primary screen, biochemical, colorimetric, mouse EphA4 (AID 689); type: functional
Streptococcus = experiment: Group A Streptococcus viability loss, dose response, counter-screen for streptokinase expression inhibitor project, luminescence, BacTiterGlo (AID 1915); type: functional, organism-based;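 also: potency for reduction of bacterial viability or growth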
[22] = system: Streptococcus sp. 'group A'; experiment: growth inhibition of control SK(-) GAS strain, dose response, counter-screen for streptokinase expression inhibitor project, luminescence, kanamycin, BacTiterGlo, confirmation (AID 1900); type: functional, organism-based
[23] = target: T5, Zinc finger protein mex-5 (Caenorhabditis elegans, UniProt Q9XUB2); experiment: MEX-5/TCR-2 RNA interaction inhibitors, dose response, biochemical, C. elegans, fluorescence polarization (AID 1960)
T5 sequence (Q9XUB2 whole entry): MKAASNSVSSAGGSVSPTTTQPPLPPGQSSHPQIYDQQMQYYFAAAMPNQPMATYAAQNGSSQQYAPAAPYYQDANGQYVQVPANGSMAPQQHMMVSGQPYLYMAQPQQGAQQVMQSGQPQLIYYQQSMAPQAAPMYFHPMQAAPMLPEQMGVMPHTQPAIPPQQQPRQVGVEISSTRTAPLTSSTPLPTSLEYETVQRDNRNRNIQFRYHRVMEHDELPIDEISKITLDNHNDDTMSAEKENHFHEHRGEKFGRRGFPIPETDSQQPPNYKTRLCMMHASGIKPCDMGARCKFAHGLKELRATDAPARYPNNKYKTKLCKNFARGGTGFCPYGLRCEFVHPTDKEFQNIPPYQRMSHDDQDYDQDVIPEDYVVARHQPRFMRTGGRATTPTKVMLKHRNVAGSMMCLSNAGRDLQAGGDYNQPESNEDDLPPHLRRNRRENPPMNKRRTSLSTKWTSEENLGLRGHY

[24] = target: T6, RNA-binding protein pos-1 (Caenorhabditis elegans, UniProt G5EF15); experiment: inhibitors of POS-1/mex-3 RNA binding, dose response, biochemical, fluorescence polarization (AID 1964);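 also: purified POS-1 fused to maltose binding protein made in E. coli; potency of compounds blocking POS-1 binding to fluorescent RNA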
T6 sequence (G5EF15 whole entry): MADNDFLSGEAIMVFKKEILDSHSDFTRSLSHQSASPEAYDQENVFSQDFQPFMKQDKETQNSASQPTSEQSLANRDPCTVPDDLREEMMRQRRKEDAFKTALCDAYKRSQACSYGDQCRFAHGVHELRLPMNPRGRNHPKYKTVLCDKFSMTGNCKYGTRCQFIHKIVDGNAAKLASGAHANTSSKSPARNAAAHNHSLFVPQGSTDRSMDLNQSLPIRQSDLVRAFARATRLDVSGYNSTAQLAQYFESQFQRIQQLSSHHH

Kallikrein-7, sequence (P49862 whole entry): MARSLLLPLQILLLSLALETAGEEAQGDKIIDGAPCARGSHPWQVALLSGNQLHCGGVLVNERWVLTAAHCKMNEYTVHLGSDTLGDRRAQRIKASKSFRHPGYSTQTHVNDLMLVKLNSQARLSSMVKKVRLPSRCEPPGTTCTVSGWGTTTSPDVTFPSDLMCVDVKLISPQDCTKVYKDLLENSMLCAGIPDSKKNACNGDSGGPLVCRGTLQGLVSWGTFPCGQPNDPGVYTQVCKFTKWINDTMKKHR
Ephrin type-A receptor 4, sequence (Q03137 whole entry): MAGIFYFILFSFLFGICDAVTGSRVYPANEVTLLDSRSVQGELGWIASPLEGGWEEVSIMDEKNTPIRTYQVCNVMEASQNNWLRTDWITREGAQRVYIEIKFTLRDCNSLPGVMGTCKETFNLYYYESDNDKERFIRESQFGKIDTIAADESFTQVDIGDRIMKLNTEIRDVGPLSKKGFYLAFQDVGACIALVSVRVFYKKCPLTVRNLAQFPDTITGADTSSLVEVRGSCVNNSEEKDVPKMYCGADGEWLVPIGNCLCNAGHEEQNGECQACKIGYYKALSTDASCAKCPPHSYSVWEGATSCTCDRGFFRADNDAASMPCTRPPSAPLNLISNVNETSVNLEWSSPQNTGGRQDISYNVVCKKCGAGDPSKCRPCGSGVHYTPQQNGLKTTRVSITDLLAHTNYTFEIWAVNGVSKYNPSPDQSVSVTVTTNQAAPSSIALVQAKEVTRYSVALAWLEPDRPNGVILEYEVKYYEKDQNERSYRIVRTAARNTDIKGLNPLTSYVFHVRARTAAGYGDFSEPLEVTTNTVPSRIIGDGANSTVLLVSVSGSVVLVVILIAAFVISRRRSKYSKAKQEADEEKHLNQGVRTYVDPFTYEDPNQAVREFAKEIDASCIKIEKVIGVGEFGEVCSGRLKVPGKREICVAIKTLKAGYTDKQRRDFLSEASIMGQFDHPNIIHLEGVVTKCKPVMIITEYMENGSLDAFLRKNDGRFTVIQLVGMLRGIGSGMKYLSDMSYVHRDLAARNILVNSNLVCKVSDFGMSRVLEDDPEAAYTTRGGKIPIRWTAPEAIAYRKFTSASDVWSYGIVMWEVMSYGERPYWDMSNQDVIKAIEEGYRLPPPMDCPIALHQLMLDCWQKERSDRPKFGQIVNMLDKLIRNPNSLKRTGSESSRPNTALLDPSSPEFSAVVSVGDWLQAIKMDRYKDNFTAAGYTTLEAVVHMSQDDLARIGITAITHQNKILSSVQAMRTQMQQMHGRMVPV
T1 sequence (P11940 whole entry): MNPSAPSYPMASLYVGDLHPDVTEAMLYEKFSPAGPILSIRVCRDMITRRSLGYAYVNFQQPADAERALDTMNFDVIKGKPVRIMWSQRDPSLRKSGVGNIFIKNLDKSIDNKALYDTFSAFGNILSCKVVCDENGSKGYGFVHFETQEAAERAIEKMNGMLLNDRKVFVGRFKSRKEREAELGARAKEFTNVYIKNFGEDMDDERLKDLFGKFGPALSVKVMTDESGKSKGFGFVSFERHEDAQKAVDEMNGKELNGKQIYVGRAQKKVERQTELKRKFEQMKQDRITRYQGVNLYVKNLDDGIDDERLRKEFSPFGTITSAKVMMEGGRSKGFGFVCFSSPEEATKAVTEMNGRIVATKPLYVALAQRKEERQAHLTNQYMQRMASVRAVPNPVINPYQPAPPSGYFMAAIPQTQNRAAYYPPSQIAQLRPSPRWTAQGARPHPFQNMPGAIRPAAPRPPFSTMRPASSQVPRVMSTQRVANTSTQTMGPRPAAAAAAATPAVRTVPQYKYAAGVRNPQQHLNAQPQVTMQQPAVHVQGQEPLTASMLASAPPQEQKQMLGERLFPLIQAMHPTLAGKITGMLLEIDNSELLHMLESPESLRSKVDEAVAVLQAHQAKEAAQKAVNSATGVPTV
Caspase-6, sequence (P55212 24-179 limits assumed): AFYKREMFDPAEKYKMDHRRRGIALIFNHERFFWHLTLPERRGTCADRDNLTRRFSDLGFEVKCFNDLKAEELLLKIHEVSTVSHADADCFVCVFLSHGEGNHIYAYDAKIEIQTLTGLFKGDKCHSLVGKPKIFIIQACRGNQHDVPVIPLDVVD
Caspase-6, sequence (P55212 194-293 limits assumed): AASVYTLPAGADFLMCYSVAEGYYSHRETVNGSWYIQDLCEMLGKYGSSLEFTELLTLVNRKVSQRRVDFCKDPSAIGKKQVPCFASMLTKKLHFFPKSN
Nonstructural protein 1, sequence (Q194T2 whole entry): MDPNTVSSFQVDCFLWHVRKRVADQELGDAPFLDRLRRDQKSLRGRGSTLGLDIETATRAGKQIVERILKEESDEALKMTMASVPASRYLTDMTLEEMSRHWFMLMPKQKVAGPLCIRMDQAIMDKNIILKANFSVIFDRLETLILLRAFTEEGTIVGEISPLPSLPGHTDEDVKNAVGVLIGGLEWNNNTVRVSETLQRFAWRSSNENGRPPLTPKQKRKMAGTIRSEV
Cytochrome P450 3A4, sequence (P08684 whole entry): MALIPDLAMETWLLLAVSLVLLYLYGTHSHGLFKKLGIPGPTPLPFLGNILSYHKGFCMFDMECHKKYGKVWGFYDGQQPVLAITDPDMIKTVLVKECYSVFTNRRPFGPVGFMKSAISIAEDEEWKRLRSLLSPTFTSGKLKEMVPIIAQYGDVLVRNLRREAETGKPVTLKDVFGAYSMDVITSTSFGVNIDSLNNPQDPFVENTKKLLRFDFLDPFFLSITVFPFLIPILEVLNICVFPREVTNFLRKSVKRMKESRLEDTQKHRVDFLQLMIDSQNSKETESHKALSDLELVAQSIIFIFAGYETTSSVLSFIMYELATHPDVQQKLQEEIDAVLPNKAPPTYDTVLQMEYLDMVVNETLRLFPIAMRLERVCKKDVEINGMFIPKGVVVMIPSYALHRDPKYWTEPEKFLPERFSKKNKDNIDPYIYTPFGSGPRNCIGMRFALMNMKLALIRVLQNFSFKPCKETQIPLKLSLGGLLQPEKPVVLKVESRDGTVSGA

CSc1nc(-c2ccccc2)nn1C(=O)c1ccc(C)cc1
IC50 (Prothrombin): 28 nM (active)

COc1ccc(/C=N/NC2=NC(=O)C(c3ccccc3)S2)c(OC)c1 (stereo not given)
IC50 [1]: > 100 µM (active)

CCC(C)C(=O)N1c2ccccc2C(=C2SC(C(=O)OC)=C(C(=O)OC)S2)C(=S)C1(C)C (stereo not given)
IC50 (Nonstructural protein 1): 17.7 µM (active)
CC50 (Vero [2]): > 100 µM (active)
IC50 [3]: > 66 µM (inactive)
IC50 [4]: > 66 µM (inactive)
CC50 (Vero [5]): 21.6 µM (active)

Cc1cc(N=Nc2ccc(C)c(N=Nc3cc(C)c(N)cc3N)c2)c(N)cc1N
EC50 [6]: > 50 µM (active)
EC50 (cells): > 67.5 µM (inactive)
EC50 [7]: > 67.5 µM (inactive)

CC(=O)Nc1cc2c3c(cccc3c1)-c1ccccc1-2
EC50 (Kallikrein-7): 8.84 µM (active)

COC(=O)c1cccc(C#CC(NP(=O)(c2ccccc2)c2ccccc2)c2ccccc2)c1 (stereo not given)
IC50 [8]: > 100 µM (active)
CC50 [9]: > 40 µM (active)
AC50 (Cytochrome P450 3A4): 12.6 µM (inconclusive)

Nn1c(-c2cccs2)nc2sc3c(c2c1=O)CCCC3
IC50 (Orexin receptor type 2 [10]): 31.2 µM (inactive)
EC50 (cells): > 67.5 µM (inactive)
IC50 [11]: 2.98 µM (active)
EC50 [7]: > 67.5 µM (inactive)
IC50 (Orexin receptor type 2 [12]): > 50 µM (inactive)
IC50 [13]: > 49.7 µM (inactive)
IC50 [14]: 18.1 µM (inactive)
IC50 (CHO-K1): > 66.2 µM (inactive)

N#C[C@H]1[C@@H](c2ccc(C#Cc3cccc(F)c3)cc2)[C@@H](CO)N1C(=O)C1CCCC1
AC50 [15]: 17.6 µM (active)
AC50 [16]: > 70 µM (inactive)
AC50 [17]: 10.6 µM (active)
AC50 [18]: > 70 µM (inactive)
AC50 [19]: > 70 µM (inactive)

CCC(=O)n1nc(-c2ccc(Cl)cc2)nc1NCc1ccccc1
IC50 (Prothrombin): 1750 nM (active)

CCOc1ccccc1NC(=O)Cc1cccs1
AC50 (Caspase-6): 16.7 µM (active)

O=C(Nc1cccc2c1CCCC2)c1cc([N+](=O)[O-])ccc1Cl
EC50 [20]: 7.64 µM (active)
EC50 [21]: 6.84 µM (active)
IC50 (Ephrin type-A receptor 4): > 100 µM (not active)

COCCNC(=O)/C(C#N)=C/c1c(N2CCN(c3ccc(OC)cc3)CC2)nc2c(C)cccn2c1=O
EC50 (Kallikrein-7): > 69.5 µM (inactive)

Cc1ccc(S(=O)(=O)CN=C(S)c2ccc3ccccc3c2)cc1
EC50 (Streptococcus): > 150 µM (not active)
IC50 [8]: > 100 µM (active)
EC50 [22]: 3.01 µM (active)

CCCOc1ccc(-c2nn(-c3ccccc3)cc2/C=C2\SC(=S)N(C3CCS(=O)(=O)C3)C2=O)cc1 (stereo not given)
IC50 (Ephrin type-A receptor 4): 12 µM (active)

CCOc1cc(N2CCOCC2)c(OCC)cc1NC(C)C(=O)N1CCN(CC)CC1 (stereo not given)
AC50 (Caspase-6): 46.7 µM (active)
EC50 [23]: > 300 µM (inconclusive)
EC50 [24]: 82.7 µM (active)
